Assay results reported in US4663342A, “Pharmaceutical composition and method for immunopotentiation” (Zaidan Hojin Biseibutsu Kagaku Kenkyu Kai, priority 1984, dated 1987).

What was measured:
[1] = test system: CDF1 mice immunized with sheep red blood cells (SRBC); experiment: Delayed Type Hypersensitivity (D.T.H.) footpad test in normal mice immunized with SRBC; assay type: in vivo; details: for Increase in footpad thickness: 24 h after SRBC challenge; for T/C (%): footpad thickness increase vs control = 100%
Procedure: Effect of actinonin on the cellular immunity was investigated by measuring the Delayed Type Hypersensitivity (D.T.H.) (see […] and T. E. Miller: "J. Exp. Med.", 139, 1529-1539 (1974)) using mice immunized with sheep red blood cells (SRBC) as the antigen inoculated to the footpad of the mice. Thus, 10^8 SRBC suspended in 0.05 ml of physiological saline was inoculated by subcutaneous injection into a subdermal site of a hind footpad of CDF1 mice (6 mice per group, female, 8-weeks old) to make immunization. At the time of this immunization, an aqueous solution containing 5 mg/kg, 0.5 mg/kg, 0.05 mg/kg or 0.005 mg/kg of actinonin was administered intraperitoneally at a single dose to each test mice. 4 Days after the immunization, 10^8 SRBC in 0.05 ml of physiological saline were injected subcutaneously into the other hind footpad of the test mice for secondary challenge of the D.T.H. response. 24 Hours after the challenge, the thickness (in mm) of the hind footpad having received the challenge of SRBC was measured with vernier caliper. At the same time, the thickness of footpad of control mice which had received the injection of the SRBC and physiological saline without the administration of the test compound was also measured in each mouse. The increase in footpad thickness of the animals treated was calculated by the following equation: [formula] The effect of actinonin on the DTH response was evaluated by the following equation: [formula] […] In this way, the cell-mediated immunity potentiating effect of the test compound was evaluated. For comparison purpose, bestatin was also tested in the same manner as above.

[2] = test system: mice bearing Ascites Sarcoma 180 tumor; experiment: D.T.H. response to picryl chloride (ear thickness) in tumor-bearing mice; assay type: in vivo; details: for Increase in ear thickness: 24 h after picryl chloride challenge; for T/C (%): ear thickness increase vs control = 100%
Procedure: In mice bearing Ascites Sarcoma 180 tumor, the effect of actinonin on the D.T.H. response to picryl chloride was investigated. 10^6 Cells of Ascites Sarcoma 180 were transplanted intraperitoneally into CDF1 mice (12-week-old, female, 5 mice per group). The day of this transplantation was designated as Day 0. […] Then, 5.0 mg/kg, 0.5 mg/kg, 0.05 mg/kg or 0.005 mg/kg of actinonin dissolved in physiological saline was orally administered once daily from Day 1 to Day 8, except that on Days 5 and 6 the test compound was not administered. During this period of Day 1 to Day 8, the control group of mice (untreated) was given physiological saline only. On day 8, the right ear was challenged with 20 μl of a 1% olive oil solution of picryl chloride which was absorbed to an absorbent cotton mass cut to a size of 10 mm×5 mm×1 mm. Twenty-four hours after the challenge, the thickness of the ear was measured with a dial gauge. On the other hand, the control animals (untreated) were challenged on Day 8 with picryl chloride and physiological saline in accordance with the same procedure, but without having been treated with the test compound, and the thickness of the ear of the control animals was measured in the same way. The increase in the thickness of ear for the control group of mice was evaluated to be 100%. The increase (T) in the thickness of the ear for the group of mice treated with the test compound was compared with that (C) for the control group of mice to evaluate the rate (T/C, %) of the increase in the thickness of the ear, whereby the cellular immunity-potentiating activity of the compound under test was estimated.

mice = experiment: Acute toxicity test in mice by intravenous injection; assay type: in vivo; details: i.v. dosage of 400 mg/kg
Procedure: Acute toxicity tests in mice by intravenous injection have shown that no deaths are caused by the actinonin compound of the formula (I) at an i.v. dosage of 400 mg/kg. […] The actinonin compound of the formula (I) is therefore useful as an immunopotentiator and anti-tumor immunomodulator or as adjuvants to various chemotherapeutic agents for use in the treatment of carcinomas.

gram-positive bacteria = details: against gram-positive bacteria; cited from earlier work
[3] = 0.5 mg/kg i.p. single dose at immunization
[4] = 0.5 mg/kg orally once daily Day 1 to Day 8 (not Days 5, 6)

SMILES | Increase in footpad thickness [1, 3] [× 0.1 mm] | T/C (%) ([1]; 0.5 mg/kg i.p. single dose) | Increase in ear thickness [2, 4] | T/C (%) ([2]; 0.5 mg/kg orally once daily) | Increase in footpad thickness ([1]; 0.005 mg/kg i.p. single dose at immunization) [× 0.1 mm] | T/C (%) ([1]; 0.005 mg/kg i.p. single dose) | Increase in footpad thickness ([1]; 0.05 mg/kg i.p. single dose at immunization) [× 0.1 mm] | T/C (%) ([1]; 0.05 mg/kg i.p. single dose) | Increase in footpad thickness ([1]; 5 mg/kg i.p. single dose at immunization) [× 0.1 mm] | T/C (%) ([1]; 5 mg/kg i.p. single dose) | Increase in ear thickness ([2]; 0.005 mg/kg orally once daily Day 1 to Day 8 (not Days 5, 6)) | T/C (%) ([2]; 0.005 mg/kg orally once daily) | Increase in ear thickness ([2]; 0.05 mg/kg orally once daily Day 1 to Day 8 (not Days 5, 6)) | T/C (%) ([2]; 0.05 mg/kg orally once daily) | Increase in ear thickness ([2]; 5 mg/kg orally once daily Day 1 to Day 8 (not Days 5, 6)) | T/C (%) ([2]; 5 mg/kg orally once daily) | Deaths in acute toxicity test (mice) | Antibacterial activity (gram-positive bacteria)
CC(C)C[C@H](NC(=O)[C@@H](O)[C@H](N)Cc1ccccc1)C(=O)O [Bestatin, reference compound] | 12.8 ± 1.47 | 149 | 6.75 ± 1.51 × 10^-3 cm | 139.2 | – | – | – | – | – | – | – | – | – | – | – | – | – | –
CCCCC[C@H](CC(=O)NO)C(=O)N[C@H](C(=O)N1CCC[C@H]1CO)C(C)C [Actinonin] | 11.4 ± 1.80 | 133 | 7.08 ± 1.66 × 10^-3 cm | 146.0 | 9.2 ± 1.15 | 107 | 10.4 ± 1.40 | 121 | 11.9 ± 1.44 | 138 | 4.70 ± 0.67 × 10^-3 cm | 96.9 | 6.80 ± 0.84 × 10^-3 cm | 140.2 | 4.60 ± 1.19 × 10^-3 cm | 94.8 | no deaths | exhibits antibacterial activity
